Laboratory results from US10946024B2, “Method for treating cancer” (Epizyme, Inc., priority 2014, dated 2021).
Entries after “also recorded” stand apart in the source; their conditions may differ.

What was measured:
[1] = system: ATF3, EGR1, CDKN2A expression in HS-SY-II cells; assay: Gene expression changes in vitro by RT-PCR, normalized to GAPDH; format: cell-based, human; design: key to ATF3 expression change, significance 0 uM vs. / EGR1 expression change, significance 0 uM vs. / CDKN2A expression change, significance 0 uM vs.: *: Asterisks mean significant changes compared to levels of 0 μM-treated groups.; **: Asterisks mean significant changes compared to levels of 0 μM-treated groups.; ***: Asterisks mean significant changes compared to levels of 0 μM-treated groups.; ****: Asterisks mean significant changes compared to levels of 0 μM-treated groups
Method: (§1) HS-SY-II and SW982 cells were treated with EZH2 inhibitors (Compound A or EPZ-011989) and collected at the indicated time points. Total RNA isolation and cDNA synthesis were performed using the TaqMan Gene Expression Cells-to-CT kit (4399002, Life technologies) according to the manufacturer's protocol. ATF3, EGR1, CDKN2A and GAPDH expression were analyzed by using the TaqMan Gene Expression Assays (Life technologies, 4331182) and the TaqMan Probes (Hs00231069_m1, Hs00152928_m1, Hs00233365_m1, and Hs99999905_m1, respectively).

[2] = system: HLA genes, Fas, KLRD1 expression in synovial sarcoma PDX tumors; settings: 400 mg/kg BID, PDX tumors harvested on day 35
Method: Tumor samples were collected at approximately 3 hours after the last dose from mice used in analysis for PK values and PD alterations. The tumor samples were stored using RNAlater (AM7020, Life technologies). Total RNA isolation and the reverse transcription were performed by RNeasy Mini Kit (74104, Qiagen) and High capacity cDNA Reverse Transcription kit (4368814, Life technologies) according to the manufacturer's instruction. The cDNA samples were used for real time-PCR as described above. The expression levels were adjusted to GAPDH and expressed as fold changes to vehicle control (FIG. 9). Additionally or alternatively, total RNAs were isolated from frozen tumor samples. The TruSeq™ RNA Sample Prep Kit (Illumina) was used to build cDNA library for paired-end sequencing on the Illumina HiSeq (details described in Illumina TruSeq RNA Sample Preparation Guide). […] Paired-end reads from ˜50M clusters per sample were generated using TruSeq SBS kit on the Illumina HiSeq.
Raw sequencing reads in FASTQ format was aligned to human genome hg19 as well as mouse genome mm10. Transcriptomic quantification was carried out with the RSEM v1.1.13 program, using USCS KnownGene transcriptome as reference. […]
The patient-derived xenograft (PDX) models CTG-0331 and CTG-0771 are low passage Champions TumorGraft™ models representing human synovial sarcoma. […] Tumor size was measured twice weekly. […]

[3] = system: ATF3, EGR1 expression in SW982 cells; assay: Gene expression changes in vitro by RT-PCR, normalized to GAPDH; format: cell-based, human; settings: SW982 in vitro culture
Method: as §1

[4] = system: synovial sarcoma PDX (CTG-0771, CTG-0331); assay: Tumor volume in mice bearing patient-derived xenografts (PDX) of synovial sarcoma, 35 days; format: in vivo; settings: oral 125, 250 or 500/400 mg/kg for 35 days
Method: FIGS. 11A and 11C show mean in vivo tumor volumes for athymic nude mice bearing one of two different PDX of synovial sarcoma tumors. FIGS. 11B and 11D show percent survival for mice bearing a PDX. Mice were dosed with either vehicle (oral for 35 days), Compound A (oral: 125 mg/kg, 250 mg/kg, or 500/400 mg/kg for 35 days) or Doxorubicin (iv: 3 mg/kg, once a week for 3 weeks). FIGS. 11A and 11B show data from mice bearing PDX from high-grade spindle cell sarcoma. FIGS. 11C and 11D show data from mice bearing PDX.
Immunocompromised female mice (Taconic; NCr nude) were implanted unilaterally in the flank region with tumor fragments (5 mm×5 mm×5 mm) harvested from donor animals, each implanted from a specific passage lot (CTG-0331 and CTG-0771 at P4). When tumors reached approximately 100-300 mm^3, animals were matched by tumor volume into treatment and control groups and dosing initiated. Vehicle (0.5% NaCMC plus 0.1% Tween 80 in water) or Compound A (500 mg/kg for CTG-0331 and 500 mg/kg decreased to 400 mg/kg on Day 17 for CTG-0771) was administered orally BID at a dose volume of 10 μL/g for 35 days. Tumor size was measured twice weekly. On Day 35, up to 5 mice with the largest tumor burden were euthanized for tumor collection 3 hours after final dose, and flash frozen. […]

HS-SY-II cells = assay: Adherent cell line long-term (14-day) proliferation assay, CellTiter-Glo; format: cell-based, human; settings: 14-day long-term proliferation assay
Method: (§2) 96-well plating for 7 day assay: For each adherent cell line, plated cells in a volume of 100 μL in 96-well plates, to be treated in triplicate, either in the evening (to treat with compound the following day) or in morning (to treat with compound in the evening), to allow cells to attach to plates before compound treatment.
(§3) 6-well plates to be split for 7-14 day assay: Plated 2 mL of cells at the correct density in each well of the 6-well plate. Calculated the correct density from the 96-well plate growth curve by multiplying the 96-well density by 30. The factor 30 came from growth area of the 6-well plate divided by the growth area of the 96-well plate (9.5 cm^2/0.32 cm^2=29.7, rounded up to 30), which corresponds to 30-fold more surface area in a 6-well vs. a 96-well plate.
(§4) Day 0: Treated with compound or DMSO by removing media and adding back either 100 μL (for 96-well plate) or 2 mL (for 6-well plate) media with the correct dilutions of compound/DMSO. Table 1 includes an example of 96-well plate map. Plates were incubated for 96 hours.
(§5) Read one 96-well plate with CellTiter-Glo® for a Day 0 reading (media change not necessary for this plate).
(§6) Day 4: Read one 96-well plate with CellTiter-Glo® for a Day 4 reading (media change not necessary for this plate before reading). Replaced media with fresh media containing compound on Day 4 in 96-well plates and 6-well plates.
(§7) Day 7: read final 96-well plate with CellTiter-Glo®.
(§8) Counted individual wells of 6-well plates, and replated cells to initial plating density in 96-well plates, as described above.
(§9) Repeated steps for Days 0-7 for Days 7-14 of the proliferation assay.
(§10) Particularly, approximately 12 hours before compound treatment, HS-SY-II or SW982 cells were plated at the density of 24,000 cells/well and 7,500 cells/well, respectively in 6-well plates. On day 0, cells were treated with either DMSO or compound starting at 10 μmol/L and decreasing in fourfold dilutions. On day 7, the cells in 6-well plates were trypsinized, counted by TC10 automated cell counter (Bio-Rad, Richmond, Calif.) and replated at the density of 800 cells/well and 250 cells/well for HS-SY-II and SW982, respectively in 96-well plates in triplicate. The cells were allowed to adhere to the plate overnight, and treated with either DMSO or compound as on Day 0. On days 0, 7, 11, and 14, cell viability was determined by CellTiter-Glo® Luminescent Cell Viability Assay (Promega) with EnVision 2103 Multilabel Reader (Perkin-Elmer, Wellesley, Mass.). Compound/media was changed with new one on Day 4 and 11. The ratios of the measured values on Days 7, 11, and 14 to that of day 7 were used to plot proliferation from day 7 to day 14, and to calculate the IC50 values on Day 14. […]

SW982 cells = assay: as above; format: cell-based, human; settings: SW982, 14-day long-term proliferation assay
Method: as §2, §3, §4, §5, §6, §7, §8, §9, §10

CCN(c1cc(-c2ccc(CN3CCOCC3)cc2)cc(C(=O)NCc2c(C)cc(C)[nH]c2=O)c1C)C1CCOCC1 [Compound A]
ATF3 and EGR1 expression ([1]; HS-SY-II in vitro culture): upregulated | CDKN2A expression ([1]; HS-SY-II in vitro culture): Dose- and time-dependent CDKN2A upregulation | CDKN2A expression change, significance 0 uM vs. ([1]; HS-SY-II, 1 uM, day 2): ** | ATF3 expression change, significance 0 uM vs. ([1]; HS-SY-II, 1 uM, day 4): * | CDKN2A expression change, significance 0 uM vs. ([1]; HS-SY-II, 1 uM, day 4): **** | ATF3 expression change, significance 0 uM vs. ([1]; HS-SY-II, 1 uM, day 7): ** | CDKN2A expression change, significance 0 uM vs. ([1]; HS-SY-II, 1 uM, day 7): **** | EGR1 expression change, significance 0 uM vs. ([1]; HS-SY-II, 1 uM, day 7): ** | expression of HLA genes, Fas, and KLRD1 relative to vehicle [2]: increased | ATF3 and EGR1 expression [3]: not in SW982 | tumor volume [4]: dose-related tumor volume decrease | sensitivity of cell proliferation (HS-SY-II cells): highly sensitive; also recorded: high sensitivity | sensitivity of cell proliferation (SW982 cells): are not; also recorded: did not; also recorded: not sensitive
